Reference: ChEMBL document CHEMBL1146050, “Depeptidization efforts on P3-P2' alpha-ketoamide inhibitors of HCV NS3-4A serine protease: effect on HCV replicon activity” (Bioorg Med Chem Lett, 2006)
Blank lines part the entries; values can stand above or below the compound they belong to. Numbered stars: 1 amine (or outer) side, 2 acyl side, 3 side chain; on linkers, the order of the positions; unused ones are H or OH. Square brackets hold non-standard residues; d marks the D form. Peptide text beside a SMILES is read from it. * marks the point of attachment. NMeAla(cPr) = CN[C@@H](CC1CC1)C(=O)O; Isobutyloxycarbonyl = CC(C)COC(=O)*; X1 = O=C(C(=O)[*:2])C(CC1CC1)N[*:1]; Ala(cPr) = N[C@@H](CC1CC1)C(=O)O; Chg = N[C@H](C(=O)O)C1CCCCC1; Phg = N[C@H](C(=O)O)c1ccccc1

Assays:
NS3 = NS3 (Hepatitis C virus, UniProt A3EZJ3); assay: Inhibitory activity against HCV NS3 protease; parameters: species or system Hepacivirus hominis; details: read-out: Ki app
Hepatitis C virus = assay: Inhibitory activity against HCV replicon; assay type: functional, Hepacivirus hominis

Chain of NS3 (A3EZJ3 whole entry): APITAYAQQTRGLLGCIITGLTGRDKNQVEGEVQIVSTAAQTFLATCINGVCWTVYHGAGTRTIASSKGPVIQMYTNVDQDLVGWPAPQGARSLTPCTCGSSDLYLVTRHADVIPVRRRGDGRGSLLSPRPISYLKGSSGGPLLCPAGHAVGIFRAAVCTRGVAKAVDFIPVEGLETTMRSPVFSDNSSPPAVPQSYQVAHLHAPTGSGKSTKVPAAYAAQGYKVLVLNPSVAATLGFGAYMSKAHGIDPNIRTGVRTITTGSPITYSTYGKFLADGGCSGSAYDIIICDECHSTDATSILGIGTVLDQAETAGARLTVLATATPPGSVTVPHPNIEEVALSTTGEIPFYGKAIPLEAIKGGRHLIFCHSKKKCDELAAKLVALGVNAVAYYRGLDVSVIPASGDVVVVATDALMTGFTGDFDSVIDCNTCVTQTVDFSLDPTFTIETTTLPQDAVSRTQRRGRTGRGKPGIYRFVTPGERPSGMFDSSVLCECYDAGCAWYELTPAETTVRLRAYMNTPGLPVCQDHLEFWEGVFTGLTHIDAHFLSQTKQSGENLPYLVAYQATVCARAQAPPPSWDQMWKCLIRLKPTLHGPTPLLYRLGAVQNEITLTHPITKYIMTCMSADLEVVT

- Ki (NS3): 230 nM
- IC90 (Hepatitis C virus): > 5000 nM
SMILES: CC(C)COC(=O)N[C@H](C(=O)NN(CC1CC1)C(=O)NC(CC1CC1)C(=O)C(=O)NCC(=O)N[C@H](C(=O)O)c1ccccc1)C1CCCCC1 (stereo partly specified)

- Ki (NS3): 2100 nM
- IC90 (Hepatitis C virus): > 5000 nM
SMILES: CC(C)COC(=O)N[C@H](C(=O)CN(CC1CC1)C(=O)NC(CC1CC1)C(=O)C(=O)NCC(=O)N[C@H](C(=O)O)c1ccccc1)C1CCCCC1 (stereo partly specified)

- Ki (NS3): 15 nM
- IC90 (Hepatitis C virus): > 5000 nM
SMILES: CC(C)COC(=O)N[C@H](C(=O)N[C@@H](CC1CC1)C(=O)NC(CC1CC1)C(=O)C(=O)NCC(=O)N[C@H](C(=O)O)c1ccccc1)C1CCCCC1 (stereo partly specified) (Isobutyloxycarbonyl-[Chg][Ala(cPr)][X1]G[Phg]-OH)

- Ki (NS3): 120 nM
- IC90 (Hepatitis C virus): > 5000 nM
SMILES: CC(C)COC(=O)N[C@H](C(=O)N(C)[C@@H](CC1CC1)C(=O)NC(CC1CC1)C(=O)C(=O)NCC(=O)N[C@H](C(=O)O)c1ccccc1)C1CCCCC1 (stereo partly specified) (Isobutyloxycarbonyl-[Chg][NMeAla(cPr)][X1]G[Phg]-OH)

Continued, compound first:

SMILES: CC(C)COC(=O)N[C@@H](C1CCCCC1)[C@@H](O)CC(=O)N[C@@H](CC1CC1)C(=O)NC(CC1CC1)C(=O)C(=O)NCC(=O)N[C@H](C(=O)O)c1ccccc1 (stereo partly specified)
- Ki (NS3): 42000 nM
- IC90 (Hepatitis C virus): > 5000 nM

SMILES: CC(C)COC(=O)N[C@@H](C1CCCCC1)[C@@H](O)CN(CC1CC1)C(=O)NC(CC1CC1)C(=O)C(=O)NCC(=O)N[C@H](C(=O)O)c1ccccc1 (stereo partly specified)
- Ki (NS3): 10000 nM
- IC90 (Hepatitis C virus): > 5000 nM

SMILES: CC(C)COC(=O)N[C@H](C(=O)N[C@@H](CC1CC1)C(=O)NC(CC1CC1)C(=O)C(=O)NCC(=O)N[C@H](C(=O)N(C)C)c1ccccc1)C1CCCCC1 (stereo partly specified) (Isobutyloxycarbonyl-[Chg][Ala(cPr)][X1]G[Phg]-NMe2)
- Ki (NS3): 50 nM
- IC90 (Hepatitis C virus): > 5000 nM

SMILES: CC(C)COC(=O)N[C@H](C(=O)N(C)[C@@H](CC1CC1)C(=O)NC(CC1CC1)C(=O)C(=O)NCC(=O)N[C@H](C(=O)N(C)C)c1ccccc1)C1CCCCC1 (stereo partly specified) (Isobutyloxycarbonyl-[Chg][NMeAla(cPr)][X1]G[Phg]-NMe2)
- Ki (NS3): 60 nM
- IC90 (Hepatitis C virus): 950 nM
